Assay results published in the NIST ThermoML archive (doi:10.1021/je900210h).
“And” between values parts separate entries of the source, which are not always exact repeats. Identical values can stand only once.

Conditions: Fluid (supercritical or subcritical phases), Coaxial cylinder method

FCC(F)(F)F [1,1,1,2-tetrafluoroethane]
Conditions	thermal conductivity
299.29 K, 170 kPa	0.01287 W/m/K
299.63 K, 170 kPa	0.01279 W/m/K
318.97 K, 740 kPa	0.01489 W/m/K and 0.01486 W/m/K
319.14 K, 160 kPa	0.0146 W/m/K
345.58 K, 180 kPa	0.01711 W/m/K
346.36 K, 180 kPa	0.01739 W/m/K
348.54 K, 180 kPa	0.01732 W/m/K
351.84 K, 640 kPa	0.01763 W/m/K
363.88 K, 180 kPa	0.01891 W/m/K
365 K, 180 kPa	0.01891 W/m/K
365.41 K, 180 kPa	0.01893 W/m/K
365.69 K, 180 kPa	0.01893 W/m/K
366.52 K, 180 kPa	0.01892 W/m/K
366.8 K, 180 kPa	0.01893 W/m/K
372.42 K, 680 kPa	0.01975 W/m/K
372.43 K, 170 kPa	0.01968 W/m/K
372.43 K, 680 kPa	0.01965 W/m/K
374.18 K, 4090 kPa	0.0729 W/m/K
374.19 K, 4100 kPa	0.0708 W/m/K
374.21 K, 4120 kPa	0.068 W/m/K
374.22 K, 4142 kPa	0.0659 W/m/K
374.22 K, 4149 kPa	0.0654 W/m/K
374.23 K, 4187 kPa	0.0642 W/m/K
374.28 K, 4085 kPa	0.141 W/m/K
374.31 K, 4090 kPa	0.1233 W/m/K
374.32 K, 4093 kPa	0.1139 W/m/K
374.34 K, 4097 kPa	0.1057 W/m/K
374.36 K, 4100 kPa	0.0993 W/m/K
374.37 K, 4073 kPa	0.1974 W/m/K
374.37 K, 4074 kPa	0.1974 W/m/K
374.37 K, 4245 kPa	0.0643 W/m/K
374.37 K, 4270 kPa	0.0643 W/m/K
374.37 K, 4358 kPa	0.0641 W/m/K
374.38 K, 4078 kPa	0.1828 W/m/K
374.38 K, 4083 kPa	0.1742 W/m/K
374.38 K, 4105 kPa	0.0914 W/m/K
374.39 K, 4070 kPa	0.1644 W/m/K
374.4 K, 4110 kPa	0.0851 W/m/K
374.47 K, 4071 kPa	0.1096 W/m/K
374.5 K, 4533 kPa	0.0637 W/m/K
374.51 K, 4621 kPa	0.0635 W/m/K
374.52 K, 4710 kPa	0.0617 W/m/K
374.52 K, 4759 kPa	0.061 W/m/K
374.54 K, 4072 kPa	0.0831 W/m/K
374.57 K, 4073 kPa	0.0764 W/m/K
374.61 K, 4068 kPa	0.0674 W/m/K
374.66 K, 4063 kPa	0.0593 W/m/K
374.72 K, 4049 kPa	0.0529 W/m/K
374.76 K, 3717 kPa	0.0352 W/m/K
374.89 K, 4035 kPa	0.0494 W/m/K
374.92 K, 3675 kPa	0.0342 W/m/K
374.96 K, 4117 kPa	0.1232 W/m/K
374.96 K, 4119 kPa	0.1244 W/m/K
374.96 K, 4126 kPa	0.1244 W/m/K
374.97 K, 4112 kPa	0.1176 W/m/K
374.97 K, 4132 kPa	0.1198 W/m/K
374.99 K, 4107 kPa	0.1106 W/m/K
374.99 K, 10033 kPa	0.064 W/m/K
375 K, 4149 kPa	0.101 W/m/K
375.01 K, 8053 kPa	0.0615 W/m/K
375.03 K, 4099 kPa	0.091 W/m/K
375.03 K, 4155 kPa	0.091 W/m/K
375.03 K, 6045 kPa	0.0576 W/m/K
375.04 K, 888 kPa	0.0235 W/m/K
375.04 K, 4160 kPa	0.0861 W/m/K
375.06 K, 4168 kPa	0.0796 W/m/K
375.07 K, 4097 kPa	0.0773 W/m/K
375.1 K, 3544 kPa	0.0321 W/m/K
375.1 K, 3981 kPa	0.0428 W/m/K
375.1 K, 4185 kPa	0.0704 W/m/K
375.11 K, 4099 kPa	0.0671 W/m/K
375.13 K, 4199 kPa	0.0643 W/m/K
375.14 K, 3928 kPa	0.0409 W/m/K
375.14 K, 4132 kPa	0.1072 W/m/K
375.14 K, 4134 kPa	0.108 W/m/K
375.14 K, 4136 kPa	0.108 W/m/K
375.14 K, 4138 kPa	0.108 W/m/K
375.14 K, 4140 kPa	0.108 W/m/K
375.14 K, 4142 kPa	0.1072 W/m/K
375.14 K, 4144 kPa	0.1063 W/m/K
375.14 K, 4216 kPa	0.0612 W/m/K
375.15 K, 4130 kPa	0.1055 W/m/K
375.15 K, 4146 kPa	0.1047 W/m/K
375.15 K, 4148 kPa	0.1024 W/m/K
375.16 K, 4150 kPa	0.1009 W/m/K
375.16 K, 4153 kPa	0.0988 W/m/K
375.16 K, 4244 kPa	0.0586 W/m/K
375.17 K, 4157 kPa	0.0941 W/m/K
375.17 K, 4289 kPa	0.0565 W/m/K
375.18 K, 4030 kPa	0.0479 W/m/K
375.18 K, 4160 kPa	0.0916 W/m/K
